Measurements taken from patent US11083199B2, “Heterocycle derivatives as pesticides” (Bayer Aktiengesellschaft, priority 2017, dated 2021).

Key:
Type in all cases: in vivo
[1] = test system: Lucilia cuprina; assay: Lucilia cuprina test; details: 48 h, application rate 100 ppm, L1 larvae, kill after 2 days, read-out: efficacy
Method: Solvent: dimethyl sulfoxide To produce a suitable active ingredient formulation, 10 mg of active ingredient are mixed with 0.5 ml of dimethyl sulfoxide, and the concentrate is diluted with water to the desired concentration. About 20 L1 larvae of the Australian sheep blowfly (Lucilia cuprina) are transferred into a test vessel containing minced horsemeat and the active ingredient formulation of the desired concentration. After 2 days, the kill in % is determined. 100% means that all the larvae have been killed; 0% means that no larvae have been killed.

[2] = test system: Myzus persicae; assay: Myzus persicae oral test; details: 120 h, application rate 4 ppm, after 5 days, read-out: efficacy
Method: [table] To produce a suitable active ingredient formulation, 1 part by weight of active ingredient is dissolved with the stated parts by weight of solvent and made up to the desired concentration with water. 50 μl of the active ingredient formulation are transferred into microtitre plates and made up to a final volume of 200 μl with 150 μl of IPL41 insect medium (33%+15% sugar). Subsequently, the plates are sealed with parafilm, which a mixed population of green peach aphids (Myzus persicae) within a second microtitre plate is able to puncture and imbibe the solution. After 5 days, the efficacy in % is determined. 100% means that all the aphids have been killed; 0% means that no aphids have been killed.

[3] = test system: Myzus persicae; assay: Myzus persicae spray test; details: foliar, 120 h, application rate 100 g/ha, Chinese cabbage leaf discs, after 5 days, read-out: efficacy
Method: (§1) [table] To produce a suitable active ingredient formulation, 1 part by weight of active ingredient is dissolved with the specified parts by weight of solvent and made up to the desired concentration with water containing an emulsifier concentration of 1000 ppm. To produce further test concentrations, the formulation is diluted with emulsifier-containing water. Discs of Chinese cabbage leaves (Brassica pekinensis) infested by all stages of the green peach aphid (Myzus persicae) are sprayed with an active ingredient formulation of the desired concentration. After 5 days, the efficacy in % is determined. 100% means that all the aphids have been killed; 0% means that no aphids have been killed.

[4] = test system: Phaedon cochleariae; assay: Phaedon cochleariae spray test; details: 168 h, application rate 100 g/ha, larvae, after 7 days, read-out: efficacy
Method: as §1, with “pekinensis)” for “pekinensis) infested by all stages of the green peach aphid (Myzus persicae)”, “concentration and, after drying, populated with larvae of the mustard beetle (Phaedon cochleariae).” for “concentration.”, “7” for “5”, “beetle larvae” for “aphids”

[5] = test system: Spodoptera frugiperda; assay: Spodoptera frugiperda spray test; details: foliar, 168 h, application rate 100 g/ha, maize leaf discs, caterpillars, after 7 days, read-out: efficacy
Method: [table] To produce a suitable active ingredient formulation, 1 part by weight of active ingredient is dissolved with the specified parts by weight of solvent and made up to the desired concentration with water containing an emulsifier concentration of 1000 ppm. To produce further test concentrations, the formulation is diluted with emulsifier-containing water. Leaf discs of maize (Zea mays) are sprayed with an active ingredient formulation of the desired concentration and, after drying, populated with caterpillars of the fall armyworm (Spodoptera frugiperda). After 7 days, the efficacy in % is determined. 100% means that all the caterpillars have been killed; 0% means that no caterpillar has been killed.

| Compound | pest or weed control at 100 ppm [1] [%] | pest or weed control at 4 ppm [2] [%] | pest or weed control at 100 g/ha [3] [%] | pest or weed control at 100 g/ha [4] [%] | pest or weed control at 100 g/ha [5] [%] |
| --- | --- | --- | --- | --- | --- |
| CCn1c(Br)nc(-c2nc3cc(C(F)(F)F)ncc3n2C)c1S(=O)(=O)CC [Example I-001] | 100 | 100 |  |  |  |
| C=C(C)c1nc(-c2nc3cc(C(F)(F)F)ncc3n2C)c(S(=O)(=O)CC)n1C [Example I-008] | 100 | 100 | 90 |  |  |
| CCS(=O)(=O)c1c(-c2nc3cc(C(F)(F)F)ncc3n2C)nc(-c2ccccc2)n1C(C)C [Example I-012] | 100 | 100 | 90 |  |  |
| CCS(=O)(=O)c1c(-c2nc3cc(C(F)(F)F)ncc3n2C)nc(-c2ccncc2)n1C [Example I-021] | 80 | 100 | 100 |  |  |
| CCS(=O)(=O)c1c(-c2nc3cc(C(F)(F)F)ncc3n2C)nc(-n2cc(Cl)cn2)n1C [Example I-027, 2-[2-(4-chloro-1H-pyrazol-1-yl)-5-(ethylsulfonyl)-1-methyl-1H-imidazol-4-yl]-3-methyl-6-(trifluoromethyl)-3H-imidazo[4,5-c]pyridine] |  | 100 | 90 | 100 | 100 |
| CCS(=O)(=O)c1c(-c2nc3cc(C(F)(F)F)ncc3n2C)nc(-c2ccnnc2)n1C [Example I-030] | 100 | 100 | 100 |  |  |
| CCS(=O)(=O)c1c(-c2nc3cc(C(F)(F)F)ncc3n2C)nc(-c2ccsc2)n1C [Example I-043] | 100 | 100 | 90 |  |  |
| CCS(=O)(=O)c1c(-c2nc3cc(C(F)(F)F)ncc3n2C)nc(C(N)=S)n1C [Example I-046, 5-(Ethylsulfonyl)-1-methyl-4-[3-methyl-6-(trifluoromethyl)-3H-imidazo[4,5-c]pyridin-2-yl]-1H-imidazole-2-carbothioamide] | 95 | 100 |  | 100 |  |
| CCS(=O)(=O)c1c(-c2nc3cc(C(F)(F)F)ncc3n2C)nc(-c2ccc(Cl)s2)n1C [Example I-057] |  | 100 | 90 | 100 | 67 |
| CCS(=O)(=O)c1c(-c2nc3cc(C(F)(F)F)ncc3n2C)nc(-c2ccn(C)n2)n1C [Example I-060] |  | 100 | 100 | 100 | 83 |
| CCS(=O)(=O)c1c(-c2nc3cc(C(F)(F)F)nnc3n2C)nc(-c2ccc(Cl)cc2)n1C [Example I-063] |  | 100 | 100 | 100 | 100 |
| CCS(=O)(=O)c1c(-c2nc3cc(C(F)(F)F)ncc3n2C)nc(-c2ccc(C3(C#N)CC3)cc2)n1C [Example I-069] |  | 100 | 90 | 100 | 100 |
| CCS(=O)(=O)c1c(-n2cc3ncc(C(F)(F)F)cc3n2)nc(-c2ccccc2)n1C [Example I-096] |  | 90 | 90 | 100 | 83 |
| CCS(=O)(=O)c1c(-n2cc3cnc(C(F)(F)F)cc3n2)nc(-c2ccc(C(F)(F)F)cc2)n1C [Example I-097] |  | 100 |  | 100 | 100 |
| CCS(=O)(=O)c1c(-n2cc3ncc(C(F)(F)F)cc3n2)nc(-c2ccc(C(F)(F)F)cc2)n1C [Example I-098, 2-{5-(Ethylsulfonyl)-1-methyl-2-[4-(trifluoromethyl)phenyl]-1H-imidazol-4-yl}-6-(trifluoromethyl)-2H-pyrazolo[4,3-b]pyridine] |  | 100 |  | 100 | 100 |
